Experimental data published in patent US7723356B2, “Quinuclidine derivatives and their use as muscarinic m3 receptor antagonists” (Novartis AG, priority 2004, dated 2010).

The molecules below were run against T1, human muscarinic acetylcholine M3 receptor (Homo sapiens, UniProt P20309) (assay: competitive filtration binding assay with [3H] n-methyl scopolamine (NMS)). Conditions: M3 Ki, membranes from CHO cells stably transfected with human M3 receptor; [3H]NMS 0.25 nM; 17 hours at room temperature; Cheng-Prusoff correction.
T1 construct: expressed in transfected cells; host or cells: CHO cells (stably transfected), membrane preparation
T1 sequence (P20309 whole entry): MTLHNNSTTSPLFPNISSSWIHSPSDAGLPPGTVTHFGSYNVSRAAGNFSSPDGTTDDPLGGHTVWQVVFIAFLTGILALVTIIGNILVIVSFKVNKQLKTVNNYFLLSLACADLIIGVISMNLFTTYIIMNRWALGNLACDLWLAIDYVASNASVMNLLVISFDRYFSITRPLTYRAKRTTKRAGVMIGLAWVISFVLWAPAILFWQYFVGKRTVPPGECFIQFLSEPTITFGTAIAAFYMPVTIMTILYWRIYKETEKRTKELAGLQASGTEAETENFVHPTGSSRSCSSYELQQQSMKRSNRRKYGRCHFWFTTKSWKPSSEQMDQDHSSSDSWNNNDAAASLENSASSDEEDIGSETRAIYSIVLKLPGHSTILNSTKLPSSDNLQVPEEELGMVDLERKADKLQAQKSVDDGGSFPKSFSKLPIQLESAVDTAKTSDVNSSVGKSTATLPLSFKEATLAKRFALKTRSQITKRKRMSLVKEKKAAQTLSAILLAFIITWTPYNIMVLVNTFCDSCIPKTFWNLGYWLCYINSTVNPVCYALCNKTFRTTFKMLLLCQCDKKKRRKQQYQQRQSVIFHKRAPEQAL
Procedure: The affinity (Ki) of agents of the invention at the human muscarinic acetylcholine M3 receptor can be determined in a competitive filtration binding assay with the radio-labelled antagonist [^3H] n-methyl scopolamine methyl chloride. (NMS):
Membranes prepared from CHO cells stably transfected with human M3 receptor at 10 μg protein/well are incubated with serial dilutions of the agents of the invention, [^3H]NMS (0.25 nM) and assay buffer (20 mM HEPES, 1 mM MgCl2 at pH 7.4) for 17 hours at room temperature. The assay is carried out in a 250 μL final volume, in the presence of a final dimethyl sulfoxide concentration of 1%. Total binding of [^3H]NMS is determined in the absence of the agents of the invention with a corresponding substituted volume of assay buffer. Non-specific binding of [^3H] NMS is determined in the presence of 300 nM ipratropium bromide. Following the incubation period, the membranes are harvested onto a Unifilter™ GF/B filter plate containing 0.05% polyethyleneimine, using a Brandel™ filtration harvester 9600. Filter plates are dried for two hours at 35° C. before the addition of Microscint™ ‘O’ cocktail, and read on a Packard Topcount™ scintillator using a ^3H-Scintillation protocol. All IC50s are calculated with the aid of XL-Fit graph package and Ki values derived using the Cheng-Prusoff correction (Cheng Y., Prusoff W. H. (1973) Biochem. Pharmacol 22 3099-3109).
Work on O=C(C[N+]12CCC(CC1)[C@@H](OC(=O)C(O)(c1ccccc1Cl)c1ccccc1Cl)C2)Nc1ccon1 [Example 1, (R)-3-[2,2-Bis-(2-chloro-phenyl)-2-hydroxy-acetoxy]-1-(isoxazol-3-ylcarbamoylmethyl)-1-azonia-bicyclo[2.2.2]octane bromide] yielded a Ki of 2.3 nM.
Molecule Cc1ccc(C(O)(C(=O)O[C@H]2C[N+]3(CC(=O)Nc4ccon4)CCC2CC3)c2ccc(C)cc2)cc1 [Example 2, (R)-3-(2-Hydroxy-2,2-di-p-tolyl-acetoxy)-1-(isoxazol-3-ylcarbamoylmethyl)-1-azonia-bicyclo[2.2.2]octane bromide] has a Ki of 1.4 nM.
In the case of CC(C(=O)O[C@H]1C[N+]2(CC(=O)Nc3ccon3)CCC1CC2)(c1ccccc1)c1ccccc1 [Example 4, (R)-3-(2,2-Diphenyl-propionyloxy)-1-(isoxazol-3-ylcarbamoylmethyl)-1-azonia-bicyclo[2.2.2]octane bromide], the Ki is reported as 0.65 nM.
Work on O=C(C[N+]12CCC(CC1)[C@@H](OC(=O)C(c1ccccc1)c1ccccc1)C2)Nc1ccon1 [Example 5, (R)-3-Diphenylacetoxy-1-(isoxazol-3-ylcarbamoylmethyl)-1-azonia-icyclo[2.2.2]octane bromide] yielded a Ki of 0.63 nM.
In the case of O=C(C[N+]12CCC(CC1)[C@@H](OC(=O)C(O)(c1ccccc1)C1CCCCC1)C2)Nc1ccon1 (stereo partly drawn) [Example 8, (R)-3-(2-Cyclohexyl-2-hydroxy-2-phenyl-acetoxy)-1-(isoxazol-3-ylcarbamoylmethyl)-1-azonia-bicyclo[2.2.2]octane bromide], the Ki is reported as 0.75 nM.

Same assay, conditions: M3 pKi, membranes from CHO cells stably transfected with human M3 receptor; [3H]NMS 0.25 nM
O=C(C[N+]12CCC(CC1)[C@@H](OC(=O)C(O)(c1ccccc1)C1CCCCC1)C2)Nc1ccon1 (stereo partly drawn) [Example 8, (R)-3-(2-Cyclohexyl-2-hydroxy-2-phenyl-acetoxy)-1-(isoxazol-3-ylcarbamoylmethyl)-1-azonia-bicyclo[2.2.2]octane bromide] was tested, and the Ki was 0.0126 nM.
O=C(C[N+]12CCC(CC1)[C@@H](OC(=O)C(O)(c1cccs1)C1CCCCC1)C2)Nc1ccon1 (stereo partly drawn) [Example 10, (R)-3-(2-Cyclohexyl-2-hydroxy-2-thiophen-2-yl-acetoxy)-1-(isoxazol-3-ylcarbamoylmethyl)-1-azonia-bicyclo[2.2.2]octane bromide] gave a Ki of 0.0115 nM.
With O=C(C[N+]12CCC(CC1)[C@@H](OC(=O)C(O)(c1ccccc1)C1CCCC1)C2)Nc1ccon1 (stereo partly drawn) [Example 11, (R)-3-(2-Cyclopentyl-2-hydroxy-2-phenyl-acetoxy)-1-(isoxazol-3-ylcarbamoyl-methyl)-1-azonia-bicyclo[2.2.2]octane bromide] the Ki was 0.00631 nM.
